Usually pEC50 stands for −log10 of the EC50, conventionally taken in molar units. A high value points to a small EC50.

We go through 34 compounds from patent publication US20150274661A1, “INDOL-AMIDE COMPOUNDS AS BETA-AMYLOID INHBITORS” (Hoffmann-La Roche Inc., priority 2012, published 2015).

The assay has as its system Aβ42 secretion. The assay can be described thus: Cellular γ-secretase assay (inhibition of Aβ42 secretion). The assay is classed as cell-based. The note with it: human neuroglioma H4 cells overexpressing human APP, 22 hours incubation. As to the method:
Cellular γ-Secretase Assay
The compounds were investigated in accordance with the test given hereinafter.
Human neuroglioma H4 cells overexpressing human APP were plated at 30,000 cells/well/200 μL in 96-well plates in IMDM media containing 10% FCS, […] Hygromycin B and incubated for 2 hours at 37° C., 5% CO2 prior to adding test compounds.
Compounds for testing were dissolved in 100% Me2SO yielding in a 10 mM stock solution. Typically 12 μL of these solutions were further diluted in 1000 μL of IMDM media (w/o FCS). Subsequent 1:1 dilutions gave a ten point dose response curve. 100 μL of each dilution was added to the cells in 96-well plates. Appropriate controls using vehicle only and reference compound were applied to this assay. The final concentration of Me2SO was 0.4%.
After incubation for 22 hours at 37° C., 5% CO2, 50 μL supernatant was transferred into round-bottom 96-well polypropylene plates for detection of Aβ42. 50 μL assay buffer (50 mM Tris/Cl, pH 7.4, 60 mM NaCl, 0.5% BSA, 1% TWEEN 20) was added to the wells followed by the addition of 100 μL of detection antibody (ruthenylated BAP15 0.0625 μg/mL in assay buffer). 50 μL of a premix of capture antibody (biotinylated 6E10 antibody, 1 μg/mL) and Streptavidin-coated magnetic beads (Dynal M-280, 0.125 mg/mL) were preincubated for 1 hour at room temperature before adding the assay plates. Assay plates were incubated on a shaker for 3 hours at room temperature and finally read in the Bioveris M8 Analyser according to the manufacturer's instructions (Bioveris).
IC50 values for inhibition of Aβ42 secretion were calculated by nonlinear regression fit analysis using XLfit 4.0 software (IDBS).

SMILES strings stand for the structures. pEC50: −log10 of the molar value.

As to `COCCN1CCCC(c2ccc3[nH]c(C(=O)Nc4cc(F)cc(F)c4)cc3c2)C1` (stereo not shown) [Example 60, 5-[1-(2-Methoxy-ethyl)-piperidin-3-yl]-1H-indole-2-carboxylic acid (3,5-difluoro-phenyl)-amide], the pEC50 (Homo sapiens, 22 h) is 5.86.
In the case of `CC(C)N1CCC(c2ccc3[nH]c(C(=O)Nc4ccc(C(C)(C)C)cc4)cc3c2)CC1` [Example 27, 5-(1-Isopropyl-piperidin-4-yl)-1H-indole-2-carboxylic acid (4-tert-butyl-phenyl)-amide], the pEC50 (Homo sapiens, 22 h) was 5.08.
On to `CN1CC[C@@H](c2ccc3[nH]c(C(=O)Nc4cc(F)cc(F)c4)cc3c2)C1` [Example 102, 5-((S)-1-Methyl-pyrrolidin-3-yl)-1H-indole-2-carboxylic acid (3,5-difluoro-phenyl)-amide], for which the pEC50 was 6.52.
The compound `CC(C)S(=O)(=O)N1CCC(c2ccc3[nH]c(C(=O)Nc4cc(F)cc(F)c4)cc3c2)C1` (stereo not shown) [Example 12, 5-[1-(Propane-2-sulfonyl)-pyrrolidin-3-yl]-1H-indole-2-carboxylic acid (3,5-difluoro-phenyl)-amide] had a pEC50 of 5.77.
On the same count and under the same terms, for `CN1CC[C@H](c2ccc3[nH]c(C(=O)Nc4cc(F)cc(F)c4)cc3c2)C1` [Example 103, 5-((R)-1-Methyl-pyrrolidin-3-yl)-1H-indole-2-carboxylic acid (3,5-difluoro-phenyl)-amide] the value was 6.43.
For `CC(C)C(=O)N1CCCC(c2ccc3[nH]c(C(=O)Nc4cc(F)cc(F)c4)cc3c2)C1` (stereo not shown) [Example 51, 5-(1-Isobutyryl-piperidin-3-yl)-1H-indole-2-carboxylic acid (3,5-difluoro-phenyl)-amide], the pEC50 (Homo sapiens, 22 h) was 6.58.
Same read-out and setting: for `CC(C)N1CCCC(c2ccc3[nH]c(C(=O)Nc4ccc(F)cc4)cc3c2)C1` (stereo not shown) [Example 47, 5-(1-Isopropyl-piperidin-3-yl)-1H-indole-2-carboxylic acid (4-fluoro-phenyl)-amide] the value was 5.94.
Turning to `Cn1cnc(S(=O)(=O)N2CCCC(c3ccc4[nH]c(C(=O)Nc5cc(F)cc(F)c5)cc4c3)C2)c1` (stereo not shown) [Example 58, 5-[1-(1-Methyl-1H-imidazole-4-sulfonyl)-piperidin-3-yl]-1H-indole-2-carboxylic acid (3,5-difluoro-phenyl)-amide], where the note is “Homo sapiens, 22 h”, the pEC50 is 6.13. This pEC50 and that of the compound before are within 0.2 log units of each other.
Same read-out and setting: for `O=C(Nc1cc(F)cc(F)c1)c1cc2cc(C3CCNC3)ccc2[nH]1` (stereo not shown) [Example 7, 5-Pyrrolidin-3-yl-1H-indole-2-carboxylic acid (3,5-difluoro-phenyl)-amide] the value was 6.60; for `N#CCN1CCC(c2ccc3c(c2)cc(C(=O)Nc2cncc(F)c2)n3CC#N)C1` (stereo not shown) [Example 81, 1-Cyanomethyl-5-(1-cyanomethyl-pyrrolidin-3-yl)-1H-indole-2-carboxylic acid (5-fluoro-pyridin-3-yl)-amide], 5.37; for `CS(=O)(=O)N1CCCC(c2ccc3[nH]c(C(=O)Nc4cc(F)cc(F)c4)cc3c2)C1` (stereo not shown) [Example 49, 5-(1-Methanesulfonyl-piperidin-3-yl)-1H-indole-2-carboxylic acid (3,5-difluoro-phenyl)-amide], 6.83.
The same measure, in the same setting: for `CC(C)S(=O)(=O)N1CCCC(c2ccc3[nH]c(C(=O)Nc4cc(F)cc(F)c4)cc3c2)C1` (stereo not shown) [Example 50, 5-[1-(Propane-2-sulfonyl)-piperidin-3-yl]-1H-indole-2-carboxylic acid (3,5-difluoro-phenyl)-amide] the value was 6.69; for `CC(c1ccc2[nH]c(C(=O)Nc3cc(F)cc(F)c3)cc2c1)N1CCCCC1=O` (stereo not shown) [Example 89, 5-[1-(2-Oxo-piperidin-1-yl)-ethyl]-1H-indole-2-carboxylic acid (3,5-difluoro-phenyl)-amide], 5.36; for `O=C(Nc1cccc(F)c1)c1cc2cc(C3CCCN(CC4CC4)C3)ccc2[nH]1` (stereo not shown) [Example 71, 5-(1-(Cyclopropylmethyl)piperidin-3-yl)-N-(3-fluorophenyl)-1H-indole-2-carboxamide], 6.01.
On to `N#CCN1CC[C@H](c2ccc3[nH]c(C(=O)Nc4cccc(F)c4)cc3c2)C1` [Example 108, (R)-5-(1-(Cyanomethyl)pyrrolidin-3-yl)-N-(3-fluorophenyl)-1H-indole-2-carboxamide], for which the pEC50 (Homo sapiens, 22 h) was 6.19.
The same measure, in the same setting: for `O=C(Nc1cncc(F)c1)c1cc2cc(C3CCN(CC4CC4)C3)ccc2[nH]1` (stereo not shown) [Example 79, 5-(1-(Cyclopropylmethyl)pyrrolidin-3-yl)-N-(5-fluoropyridin-3-yl)-1H-indole-2-carboxamide] the value was 6.01; for `O=C(Nc1cncc(F)c1)c1cc2cc(C3CCNC3)ccc2[nH]1` (stereo not shown) [Example 75, N-(5-Fluoropyridin-3-yl)-5-(pyrrolidin-3-yl)-1H-indole-2-carboxamide], 5.88; for `COCCN1CCC(c2ccc3[nH]c(C(=O)Nc4ccc(F)cc4)cc3c2)CC1` [Example 37, 5-[1-(2-Methoxy-ethyl)-piperidin-4-yl]-1H-indole-2-carboxylic acid (4-fluoro-phenyl)-amide], 5.84.
For the compound `N#CCN1CCC(c2ccc3[nH]c(C(=O)Nc4cncc(F)c4)cc3c2)C1` (stereo not shown) [Example 80, 5-(1-Cyanomethyl-pyrrolidin-3-yl)-1H-indole-2-carboxylic acid (5-fluoro-pyridin-3-yl)-amide], the pEC50 (Homo sapiens, 22 h) is 6.03.
Under “Homo sapiens, 22 h”, `CC(C)N1CCC(c2ccc3[nH]c(C(=O)Nc4ccc(F)nc4)cc3c2)CC1` [Example 32, 5-(1-Isopropyl-piperidin-4-yl)-1H-indole-2-carboxylic acid (6-fluoro-pyridin-3-yl)-amide] had a pEC50 of 5.09.
`CCN1CCC(c2ccc3[nH]c(C(=O)Nc4ccc(F)cc4)cc3c2)CC1` [Example 42, 5-[1-Ethyl-piperidin-4-yl]-1H-indole-2-carboxylic acid (4-fluoro-phenyl)-amide]: for the setting “Homo sapiens, 22 h”, the pEC50 was 5.72.
For the compound `O=C(Nc1cccc(F)c1)c1cc2cc([C@@H]3CCCN(CCO)C3)ccc2[nH]1` [Example 115, (S)—N-(3-Fluorophenyl)-5-(1-(2-hydroxyethyl)piperidin-3-yl)-1H-indole-2-carboxamide], the pEC50 (Homo sapiens, 22 h) was 5.82.
Same read-out and setting: for `CC(C)N1CCC(c2ccc3[nH]c(C(=O)Nc4cccc(F)c4)cc3c2)C1` (stereo not shown) [Example 14, N-(3-Fluorophenyl)-5-(1-isopropylpyrrolidin-3-yl)-1H-indole-2-carboxamide] the value was 6.28; for `O=C(Nc1cc(F)cc(F)c1)c1cc2cc(C3CCCN(S(=O)(=O)C4CC4)C3)ccc2[nH]1` (stereo not shown) [Example 56, 5-(1-Cyclopropanesulfonyl-piperidin-3-yl)-1H-indole-2-carboxylic acid (3,5-difluoro-phenyl)-amide], 6.33.
Consider `CC(C)S(=O)(=O)N1CCC(c2ccc3[nH]c(C(=O)Nc4cc(F)cc(F)c4)cc3c2)C1` (stereo not shown) [Example 107], for which the pEC50 was 6.20.
In the case of `CCCN1CCC(c2ccc3[nH]c(C(=O)Nc4ccc(F)cc4)cc3c2)CC1` [Example 40, 5-[1-Propyl-piperidin-4-yl]-1H-indole-2-carboxylic acid (4-fluoro-phenyl)-amide], the pEC50 (Homo sapiens, 22 h) is 5.77.
Take `CC(=O)N1CCCC(c2ccc3[nH]c(C(=O)Nc4cc(F)cc(F)c4)cc3c2)C1` (stereo not shown) [Example 52, 5-(1-Acetyl-piperidin-3-yl)-1H-indole-2-carboxylic acid (3,5-difluoro-phenyl)-amide]: the pEC50 (Homo sapiens, 22 h) is 6.56.
`CC(C)N1CCCC(c2ccc3[nH]c(C(=O)Nc4cc(F)cc(Cl)c4)cc3c2)C1` (stereo not shown) [Example 30, N-(3-Chloro-5-fluorophenyl)-5-(1-isopropylpiperidin-3-yl)-1H-indole-2-carboxamide] gave a pEC50 (Homo sapiens, 22 h) of 6.13. Compared with the last compound, the pEC50 is 0.43 log units lower.
Take `CC(C)N1CCC(c2ccc3[nH]c(C(=O)Nc4cncc(F)c4)cc3c2)C1` (stereo not shown) [Example 76, N-(5-Fluoropyridin-3-yl)-5-(1-isopropylpyrrolidin-3-yl)-1H-indole-2-carboxamide]: the pEC50 (Homo sapiens, 22 h) was 6.10. This pEC50 and that of the compound before are within 0.2 log units of each other.
On the same count and under the same terms, for `O=C(Nc1cc(F)cc(F)c1)c1cc2cc([C@@H]3CCN(CC(F)(F)F)C3)ccc2[nH]1` [Example 104, 5-[(S)-1-(2,2,2-Trifluoro-ethyl)-pyrrolidin-3-yl]-1H-indole-2-carboxylic acid (3,5-difluoro-phenyl)-amide] the value was 6.28; for `CN1CCC(c2ccc3[nH]c(C(=O)Nc4ccc(F)cc4)cc3c2)CC1` [Example 36, 5-(1-Methyl-piperidin-4-yl)-1H-indole-2-carboxylic acid (4-fluoro-phenyl)-amide], 5.96.
With `O=C(Nc1cccc(F)c1)c1cc2cc(C3CCCN(C4CC4)C3)ccc2[nH]1` (stereo not shown) [Example 72, 5-(1-Cyclopropylpiperidin-3-yl)-N-(3-fluorophenyl)-1H-indole-2-carboxamide], the pEC50 (Homo sapiens, 22 h) is 5.95.
Same read-out and setting: next, `O=C(Nc1ccc(F)c(F)c1)c1cc2cc(C(O)CN3CCCCC3)ccc2[nH]1` (stereo not shown) [Example 100, 5-(1-Hydroxy-2-piperidin-1-yl-ethyl)-1H-indole-2-carboxylic acid (3,4-difluoro-phenyl)-amide]: 5.58; `COCCN1CCCC(c2ccc3[nH]c(C(=O)Nc4cccc(F)c4)cc3c2)C1` (stereo not shown) [Example 66, N-(3-Fluorophenyl)-5-(1-(2-methoxyethyl)piperidin-3-yl)-1H-indole-2-carboxamide]: 6.14.
